Organism: Rattus norvegicus
Assay: DrugMatrix - Regimen: Daily Repeat
Type: toxicity, organism-based, Sprague-Dawley
Parameters: regimen Daily Repeat, gender Male, age 6-8 weeks
Details: in vivo, po, 0 mg/kg, route oral GAVAGE, dose level Control, […]; for ABSOLUTE BASOPHIL / ABSOLUTE EOSINOPHIL / ABSOLUTE LYMPHOCYTE / ABSOLUTE MONOCYTE / ABSOLUTE SEGMENTED NEUTROPHIL / BASOPHIL / EOSINOPHIL / ERYTHROCYTE COUNT / HEMATOCRIT / HEMOGLOBIN / LEUKOCYTE COUNT / LYMPHOCYTE / MEAN CORPUSCULAR HEMOGLOBIN / MEAN CORPUSCULAR HEMOGLOBIN CONCENTRATION / MEAN CORPUSCULAR VOLUME / MONOCYTE / NEUTROPHIL / NUCLEATED RED BLOOD CELLS / PLATELET COUNT: tissue Blood; for ALANINE AMINOTRANSFERASE / ALBUMIN / ALKALINE PHOSPHATASE / ASPARTATE AMINOTRANSFERASE / BLOOD UREA NITROGEN / CARBON DIOXIDE / CHLORIDE / CHOLESTEROL / CREATINE PHOSPHOKINASE / CREATININE / GLUCOSE / LACTATE DEHYDROGENASE / LIPASE / PHOSPHORUS / POTASSIUM / SODIUM / TOTAL BILIRUBIN / TOTAL PROTEIN / URIC ACID: tissue Plasma

In the case of `OC(Cn1cncn1)(Cn1cncn1)c1ccc(F)cc1F` [FLUCONAZOLE], the “ABSOLUTE BASOPHIL” value (72 h, time 3 day) is reported as 0 CELLS/uL, the “ABSOLUTE EOSINOPHIL” value (72 h, time 3 day) is reported as 104.17 CELLS/uL and the “ABSOLUTE LYMPHOCYTE” value (72 h, time 3 day) is reported as 14547 CELLS/uL. For the same compound, the “ABSOLUTE MONOCYTE” value (72 h, time 3 day) was 292 CELLS/uL, the “ABSOLUTE SEGMENTED NEUTROPHIL” value (72 h, time 3 day) was 1640.17 CELLS/uL and the BASOPHIL (72 h, time 3 day) was 0%. For the same compound, the EOSINOPHIL (72 h, time 3 day) was 0.67%, the “ERYTHROCYTE COUNT” value (72 h, time 3 day) was 5.35 x10E6/uL and the HEMATOCRIT (72 h, time 3 day) was 33.67%. For the same compound, the HEMOGLOBIN (72 h, time 3 day) was 13.38 G/DL, the “LEUKOCYTE COUNT” value (72 h, time 3 day) was 16.58 x10E3/uL and the LYMPHOCYTE (72 h, time 3 day) was 87.5%. For the same compound, the “MEAN CORPUSCULAR HEMOGLOBIN” value (72 h, time 3 day) was 25.05 pg, the “MEAN CORPUSCULAR HEMOGLOBIN CONCENTRATION” value (72 h, time 3 day) was 39.78 G/DL and the “MEAN CORPUSCULAR VOLUME” value (72 h, time 3 day) was 62.97 fL. The MONOCYTE (72 h, time 3 day) was 1.83%, the NEUTROPHIL (72 h, time 3 day) was 10% and the “NUCLEATED RED BLOOD CELLS” value (72 h, time 3 day) was 0 /100WBC. For the same compound, the “PLATELET COUNT” value (72 h, time 3 day) was 1274.5 x10E3/uL, the “ALANINE AMINOTRANSFERASE” value (72 h, time 3 day) was 76.83 u/L and the ALBUMIN (72 h, time 3 day) was 3.97 G/DL. The “ALKALINE PHOSPHATASE” value (72 h, time 3 day) was 347 u/L, the “ASPARTATE AMINOTRANSFERASE” value (72 h, time 3 day) was 97.17 u/L and the “BLOOD UREA NITROGEN” value (72 h, time 3 day) was 14.33 mg/dL. The “CARBON DIOXIDE” value (72 h, time 3 day) was 25.5 mmol/L, the CHLORIDE (72 h, time 3 day) was 100.33 MEQ/L and the CHOLESTEROL (72 h, time 3 day) was 68.67 mg/dL. The “CREATINE PHOSPHOKINASE” value (72 h, time 3 day) was 659.17 u/L, the CREATININE (72 h, time 3 day) was 0.32 mg/dL and the GLUCOSE (72 h, time 3 day) was 160.67 mg/dL. The “LACTATE DEHYDROGENASE” value (72 h, time 3 day) was 271.5 u/L, the LIPASE (72 h, time 3 day) was 11.67 u/L and the PHOSPHORUS (72 h, time 3 day) was 10.65 mg/dL. For the same compound, the POTASSIUM (72 h, time 3 day) was 5.95 MEQ/L, the SODIUM (72 h, time 3 day) was 139.65 MEQ/L and the “TOTAL BILIRUBIN” value (72 h, time 3 day) was 0.2 mg/dL. The “TOTAL PROTEIN” value (72 h, time 3 day) was 5.72 G/DL, the “URIC ACID” value (72 h, time 3 day) was 1.37 mg/dL and the “ABSOLUTE BASOPHIL” value (120 h, time 5 day) was 0 CELLS/uL. For the same compound, the “ABSOLUTE EOSINOPHIL” value (120 h, time 5 day) was 331.5 CELLS/uL, the “ABSOLUTE LYMPHOCYTE” value (120 h, time 5 day) was 15021.67 CELLS/uL and the “ABSOLUTE MONOCYTE” value (120 h, time 5 day) was 376.5 CELLS/uL. For the same compound, the “ABSOLUTE SEGMENTED NEUTROPHIL” value (120 h, time 5 day) was 3070.33 CELLS/uL, the BASOPHIL (120 h, time 5 day) was 0% and the EOSINOPHIL (120 h, time 5 day) was 1.83%. The “ERYTHROCYTE COUNT” value (120 h, time 5 day) was 5.24 x10E6/uL, the HEMATOCRIT (120 h, time 5 day) was 33.22% and the HEMOGLOBIN (120 h, time 5 day) was 13.2 G/DL. For the same compound, the “LEUKOCYTE COUNT” value (120 h, time 5 day) was 18.8 x10E3/uL, the LYMPHOCYTE (120 h, time 5 day) was 79.67% and the “MEAN CORPUSCULAR HEMOGLOBIN” value (120 h, time 5 day) was 25.17 pg. The “MEAN CORPUSCULAR HEMOGLOBIN CONCENTRATION” value (120 h, time 5 day) was 39.73 G/DL, the “MEAN CORPUSCULAR VOLUME” value (120 h, time 5 day) was 63.38 fL and the MONOCYTE (120 h, time 5 day) was 2%. For the same compound, the NEUTROPHIL (120 h, time 5 day) was 16.5%, the “NUCLEATED RED BLOOD CELLS” value (120 h, time 5 day) was 0 /100WBC and the “PLATELET COUNT” value (120 h, time 5 day) was 1142.67 x10E3/uL. For the same compound, the “ALANINE AMINOTRANSFERASE” value (120 h, time 5 day) was 52.5 u/L, the ALBUMIN (120 h, time 5 day) was 3.9 G/DL and the “ALKALINE PHOSPHATASE” value (120 h, time 5 day) was 284.5 u/L. For the same compound, the “ASPARTATE AMINOTRANSFERASE” value (120 h, time 5 day) was 81.33 u/L, the “BLOOD UREA NITROGEN” value (120 h, time 5 day) was 16 mg/dL and the “CARBON DIOXIDE” value (120 h, time 5 day) was 25.33 mmol/L. For the same compound, the CHLORIDE (120 h, time 5 day) was 99.5 MEQ/L, the CHOLESTEROL (120 h, time 5 day) was 74.83 mg/dL and the “CREATINE PHOSPHOKINASE” value (120 h, time 5 day) was 448.33 u/L. The CREATININE (120 h, time 5 day) was 0.37 mg/dL, the GLUCOSE (120 h, time 5 day) was 164.17 mg/dL and the “LACTATE DEHYDROGENASE” value (120 h, time 5 day) was 290.67 u/L. It also gave an LIPASE (120 h, time 5 day) of 6.83 u/L, a PHOSPHORUS (120 h, time 5 day) of 11.5 mg/dL and a POTASSIUM (120 h, time 5 day) of 6.28 MEQ/L. The SODIUM (120 h, time 5 day) was 139.5 MEQ/L, the “TOTAL BILIRUBIN” value (120 h, time 5 day) was 0.13 mg/dL and the “TOTAL PROTEIN” value (120 h, time 5 day) was 5.55 G/DL. For the same compound, the “URIC ACID” value (120 h, time 5 day) was 1.12 mg/dL.

— ChEMBL document CHEMBL3885881, “DrugMatrix”
